Assay results: PubChem BioAssay (NCI)
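Values below derive from 48-hour exposures of cells grown in 96-well plates, with endpoints linearly interpolated between the two concentrations bracketing the appropriate inhibition level. TGI denotes the concentration required for complete inhibition of growth.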

What was measured:
Assay in all cases: NCI tumour cell line growth inhibition, 48 h
[1] = system: DU-145 prostate
[2] = system: HOP-62 NSCLC
[3] = system: TK-10 renal
[4] = system: SNB-19 CNS
[5] = system: SK-MEL-2 melanoma
[6] = system: OVCAR-3 ovarian
[7] = system: HCC-2998 colon
[8] = system: LOX IMVI melanoma
[9] = system: BT-549 breast
[10] = system: RXF 393 renal
[11] = system: A498 renal
[12] = system: HCT-116 colon
[13] = system: OVCAR-8 ovarian
[14] = system: OVCAR-5 ovarian
[15] = system: SF-268 CNS
[16] = system: NCI-H522 lung
[17] = system: MALME-3M melanoma
[18] = system: NCI-H226 lung
[19] = system: HL-60(TB) leukemia
[20] = system: HS 578T breast
[21] = system: HT29 colon
[22] = system: ACHN renal
[23] = system: T-47D breast
[24] = system: UACC-62 melanoma
[25] = system: SK-OV-3 ovarian
[26] = system: K-562 leukemia
[27] = system: COLO 205 colon
[28] = system: SF-539 CNS
[29] = system: SK-MEL-28 melanoma
[30] = system: IGROV1 ovarian
[31] = system: 786-0 renal
[32] = system: SK-MEL-5 melanoma
[33] = system: MCF7 breast
[34] = system: MDA-MB-231 breast
[35] = system: KM12 colon
[36] = system: RPMI-8226 leukemia
[37] = system: NCI-H460 lung
[38] = system: SW-620 colon
[39] = system: SF-295 CNS
[40] = system: UO-31 renal
[41] = system: NCI/ADR-RES ovarian
[42] = system: SNB-75 CNS
[43] = system: OVCAR-4 ovarian
[44] = system: M14 melanoma
[45] = system: HCT-15 colon
[46] = system: U251 CNS
[47] = system: UACC-257 melanoma
[48] = system: HOP-92 NSCLC
[49] = system: A549 NSCLC
[50] = system: SN12C renal
[51] = system: SR leukemia
[52] = system: MDA-N
[53] = system: CCRF-CEM leukemia
[54] = system: PC-3 prostate
[55] = system: EKVX NSCLC
[56] = system: MDA-MB-435
[57] = system: NCI-H23 lung
[58] = system: CAKI-1 renal
[59] = system: MOLT-4 leukemia

Q: How did the TGI [1] turn out when `CC(C)(C)c1cc(/C=C(\C#N)C2=NCCO2)cc(C(C)(C)C)c1O` was run?
A: > 40.9 µM

Q: And the TGI [2]?
A: > 38.9 µM

Q: And the TGI [3]?
A: 16 µM

Q: What about the TGI [4] of the same compound?
A: 15.5 µM

Q: And the TGI [5]?
A: 8.55 µM

Q: And the TGI [6]?
A: 7.51 µM

Q: And the TGI [7]?
A: 8.77 µM

Q: What about the TGI [8] of the same compound?
A: 18.8 µM

Q: And the TGI [9]?
A: 12.4 µM

Q: What about the TGI [10] of the same compound?
A: 14.7 µM

Q: And the TGI [11]?
A: 16.7 µM

Q: And the TGI [12]?
A: 11.9 µM

Q: And the TGI [13]?
A: 19.6 µM

Q: What about the TGI [14] of the same compound?
A: 10 µM

Q: What about the TGI [15] of the same compound?
A: 16.1 µM

Q: And the TGI [16]?
A: 9.06 µM

Q: And the TGI [17]?
A: 19.6 µM

Q: What about the TGI [18] of the same compound?
A: 20.1 µM

Q: And the TGI [19]?
A: 5.87 µM

Q: And the TGI [20]?
A: 34.1 µM

Q: What about the TGI [21] of the same compound?
A: 11.7 µM

Q: And the TGI [22]?
A: 14.5 µM

Q: And the TGI [23]?
A: 9.13 µM

Q: What about the TGI [24] of the same compound?
A: 17.1 µM

Q: And the TGI [25]?
A: > 32.9 µM

Q: What about the TGI [26] of the same compound?
A: 16.5 µM

Q: What about the TGI [27] of the same compound?
A: 3.39 µM

Q: What about the TGI [28] of the same compound?
A: 12.2 µM

Q: What about the TGI [29] of the same compound?
A: 29 µM

Q: And the TGI [30]?
A: 21.9 µM

Q: What about the TGI [31] of the same compound?
A: 14.7 µM

Q: And the TGI [32]?
A: 5.62 µM

Q: What about the TGI [33] of the same compound?
A: 12.7 µM

Q: And the TGI [34]?
A: 12.4 µM

Q: What about the TGI [35] of the same compound?
A: 15.6 µM

Q: And the TGI [36]?
A: 4.74 µM

Q: And the TGI [37]?
A: 6.63 µM

Q: And the TGI [38]?
A: 18.5 µM

Q: And the TGI [39]?
A: 9.8 µM

Q: And the TGI [40]?
A: 9.27 µM

Q: And the TGI [41]?
A: 10.7 µM

Q: And the TGI [42]?
A: 7.47 µM

Q: What about the TGI [43] of the same compound?
A: 22.8 µM

Q: And the TGI [44]?
A: 17 µM

Q: What about the TGI [45] of the same compound?
A: 13.1 µM

Q: What about the TGI [46] of the same compound?
A: 12 µM

Q: What about the TGI [47] of the same compound?
A: 7.89 µM

Q: What about the TGI [48] of the same compound?
A: 15.2 µM

Q: And the TGI [49]?
A: 19.7 µM

Q: And the TGI [50]?
A: 10.1 µM

Q: What about the TGI [51] of the same compound?
A: 8.91 µM

Q: And the TGI [52]?
A: 16.6 µM

Q: And the TGI [53]?
A: 9.35 µM

Q: What about the TGI [54] of the same compound?
A: 7.37 µM

Q: What about the TGI [55] of the same compound?
A: 17.2 µM

Q: What about the TGI [56] of the same compound?
A: 32.3 µM

Q: What about the TGI [57] of the same compound?
A: 13.4 µM

Q: What about the TGI [58] of the same compound?
A: > 35.5 µM

Q: What about the TGI [59] of the same compound?
A: 21.1 µM

Q: Which results are given for `O=C(O)c1nc2cc(Cl)ccc2[nH]c1=O`?
A: TGI [1]: > 100 µM; TGI [2]: > 100 µM; TGI [3]: > 100 µM; TGI [4]: > 100 µM; TGI [5]: > 100 µM; TGI [6]: > 100 µM; TGI [7]: > 100 µM; TGI [8]: > 100 µM; TGI [9]: > 100 µM; TGI [10]: > 100 µM; TGI [11]: > 100 µM; TGI [12]: > 100 µM; TGI [13]: > 100 µM; TGI [14]: > 100 µM; TGI [15]: > 100 µM; TGI [16]: > 100 µM; TGI [17]: > 100 µM; TGI [18]: > 100 µM; TGI [19]: > 100 µM; TGI [20]: > 100 µM; TGI [21]: > 100 µM; TGI [22]: > 100 µM; TGI [23]: > 100 µM; TGI [24]: > 100 µM; TGI [25]: > 100 µM; TGI [26]: > 100 µM; TGI [27]: > 100 µM; TGI [28]: > 100 µM; TGI [29]: > 100 µM; TGI [30]: > 100 µM; TGI [31]: > 100 µM; TGI [32]: > 100 µM; TGI [33]: > 100 µM; TGI [34]: > 100 µM; TGI [35]: > 100 µM; TGI [36]: > 100 µM; TGI [37]: > 100 µM; TGI [38]: > 100 µM; TGI [39]: > 100 µM; TGI [40]: > 100 µM; TGI [41]: > 100 µM; TGI [43]: > 100 µM; TGI [44]: > 100 µM; TGI [45]: > 100 µM; TGI [46]: > 100 µM; TGI [47]: > 100 µM; TGI [48]: > 100 µM; TGI [49]: > 100 µM; TGI [50]: > 100 µM; TGI [51]: > 100 µM; TGI [52]: > 100 µM; TGI [53]: > 100 µM; TGI [54]: > 100 µM; TGI [55]: > 100 µM; TGI [56]: > 100 µM; TGI [57]: > 100 µM; TGI [58]: > 100 µM; TGI [59]: > 100 µM
